This experiment addresses Protein kinase C alpha type (Homo sapiens, UniProt P17252). Briefly: Binding affinity (Ki) towards Protein kinase C.

This is an account of results in ChEMBL document CHEMBL1127649, “Protein kinase C. Modeling of the binding site and prediction of binding constants” (J Med Chem, 1994).

Molecules are shown by their SMILES. A value given as a limit tells only on which side of the number the result lay.

For `CCCCCCCCCCCCCC(=O)O[C@H]1CC(=O)O[C@H]1CO`, the Ki came to 31 µM. In other words, the double-digit micromolar range.

In the case of `CCCCCCCCCCCC[C@@H]1C(=O)O[C@]2(CO)CC(=O)O[C@H]12`, the affinity corresponds to a Ki of 7.6 µM.

For `CCCCCCCCCCCCCC(=O)O[C@H]1CC(=O)O[C@@H]1CO`, the Ki stood at 5.3 µM.

`CCCCCCCCCCC(=O)O[C@@H]1CC(=O)O[C@H]1CO` registered a Ki of 4.1 µM.

The compound `CCCCCCCCCCC[C@H]1C(=O)O[C@@]2(CO)COC(=O)[C@@H]12` registered an inhibition constant (Ki) of 22 µM.

For `CCCCCCCCCCCCCC(=O)C1CC(=O)O[C@H]1CO` (stereo partly specified), the affinity corresponds to a Ki of 2.5 µM.

`CCCCCCCCCCCCC1C(=O)O[C@@H](CO)[C@@]12CCC(=O)O2` (stereo partly specified) showed a Ki of 75.3 µM.

The compound `CCCCCCCCCCCCCC(=O)OC[C@H](CO)OC(C)=O` gave a Ki of 1.3 µM.

`CCCCCCCCCCC/C=C1/C(=O)O[C@@H](CO)[C@@]12CCC(=O)O2` showed a Ki of 13.6 µM.

`CO[C@@H](CC[C@H](C)[C@H]1O[C@@]23CC(OC(=O)C[C@H]([C@@H](C)O)OC(=O)C[C@](O)(O2)[C@H](C)CC3(C)C)[C@@H]1C)c1cccc(O)c1` registered a Ki of 0.02 µM.

Compound `CCCCCCCCCCC[C@@H]1C(=O)O[C@]2(CO)COC(=O)[C@H]12` gave a Ki of 7.7 µM. Compared with the last compound, the Ki is about 380-fold higher.

Compound `CCCCCCCCCCCCCCCCCCC(=O)O[C@@H]1CC(=O)O[C@H]1CO` returned a Ki of 8.7 µM.

The compound `CCCCCCCCCCC[C@@H]1C(=O)O[C@H]2[C@@H]1C(=O)O[C@@H]2CO` gave a Ki of 27.8 µM.

`CC(=O)O[C@@H]1CC(=O)O[C@H]1CO` gave a Ki of more than 1700 µM.

`CCCCCCCCCCCCCC(=O)O[C@@H]1CC(=O)O[C@@H]1CO`: the Ki is 300 µM.

Regarding `CCCCCCC(=O)O[C@@H]1CC(=O)O[C@H]1CO`, affinity was put at a Ki of 187 µM. This Ki is about 1.6-fold lower than that of the compound before.

What is called Ki is the equilibrium dissociation constant of an inhibitor or competing ligand from its target. Lower therefore signals tighter binding.
